Test results taken from ChEMBL document CHEMBL3044753, “Polyamines May Modulate Both G Protein-Coupled Receptors and G Proteins” (Med Chem Res, 2004).

Legend:
Format in all cases: functional, tissue-based
Left cardiac atrium [1] = experiment: Negative ionotropic activity in electrically-paced Cavia porcellus (guinea pig) left atrium measured immediately by isometric transducer analysis in absence of benzalkonium/prazosin
Right cardiac atrium [2] = experiment: Negative ionotropic activity in electrically-paced Cavia porcellus (guinea pig) right atrium assessed as effect on force measured immediately by isometric transducer analysis in absence of benzalkonium/prazosin
Right cardiac atrium [3] = experiment: Negative […] activity in electrically-paced Cavia porcellus (guinea pig) right atrium assessed as effect on force measured after 60 min by isometric transducer analysis in absence of benextramine/4-DAMP mustard; conditions: 1 h
Left cardiac atrium [4] = experiment: Negative ionotropic activity in electrically-paced Cavia porcellus (guinea pig) left atrium measured after 60 min by isometric transducer analysis in absence of benextramine/4-DAMP mustard; conditions: 1 h
Right cardiac atrium [5] = experiment: Negative […] activity in electrically-paced Cavia porcellus (guinea pig) right atrium assessed as effect on force measured after 60 min by isometric transducer analysis in presence of benextramine/4-DAMP mustard; conditions: 1 h
Left cardiac atrium [6] = experiment: Negative ionotropic activity in electrically-paced Cavia porcellus (guinea pig) left atrium measured after 60 min by isometric transducer analysis in presence of benextramine/4-DAMP mustard; conditions: 1 h

Row | EC50 (Right cardiac atrium [3]) [nM] | EC50 (Left cardiac atrium [4]) [nM] | EC50 (Right cardiac atrium [5]) [nM] | EC50 (Left cardiac atrium [6]) [nM] | SMILES | EC50 (Left cardiac atrium [1]) [nM] | EC50 (Right cardiac atrium [2]) [nM]
1 |  |  |  |  | C#CCOC(=O)C1=CCCN(C)C1 [ARECAIDINE PROPARGYL ESTER] | 4.57 | 1.7
2 | 0.417 | 0.417 | 0.282 | 0.363 | CCCCCCCCCCCCNC(=O)[C@@H](N)CCCCN [N-DODECYL LYSINE AMIDE] |  | 
